Assay results as given in patent publication US20170281622A1, “DERIVATIVES OF MACROCYCLIC N-ARYL-2-AMINO-4-ARYL-PYRIMIDINE POLYETHERS AS INHIBITORS OF FTL3 AND JAK” (PIERRE FABRE MEDICAMENT, priority 2014, published 2017).
Numbering of substitutions follows the chain as printed.

Tests used:
[1] = molecular target: T1, JAK3 (Homo sapiens, UniProt P52333); experiment: LanthaScreen TR-FRET binding test, JAK3; conditions: recombinant enzyme 15 nM, kinase tracer 236 3 nM, 25° C., 1 hour
T1 construct: purchased Life Technologies PV3855
T1 sequence (P52333 1-1124): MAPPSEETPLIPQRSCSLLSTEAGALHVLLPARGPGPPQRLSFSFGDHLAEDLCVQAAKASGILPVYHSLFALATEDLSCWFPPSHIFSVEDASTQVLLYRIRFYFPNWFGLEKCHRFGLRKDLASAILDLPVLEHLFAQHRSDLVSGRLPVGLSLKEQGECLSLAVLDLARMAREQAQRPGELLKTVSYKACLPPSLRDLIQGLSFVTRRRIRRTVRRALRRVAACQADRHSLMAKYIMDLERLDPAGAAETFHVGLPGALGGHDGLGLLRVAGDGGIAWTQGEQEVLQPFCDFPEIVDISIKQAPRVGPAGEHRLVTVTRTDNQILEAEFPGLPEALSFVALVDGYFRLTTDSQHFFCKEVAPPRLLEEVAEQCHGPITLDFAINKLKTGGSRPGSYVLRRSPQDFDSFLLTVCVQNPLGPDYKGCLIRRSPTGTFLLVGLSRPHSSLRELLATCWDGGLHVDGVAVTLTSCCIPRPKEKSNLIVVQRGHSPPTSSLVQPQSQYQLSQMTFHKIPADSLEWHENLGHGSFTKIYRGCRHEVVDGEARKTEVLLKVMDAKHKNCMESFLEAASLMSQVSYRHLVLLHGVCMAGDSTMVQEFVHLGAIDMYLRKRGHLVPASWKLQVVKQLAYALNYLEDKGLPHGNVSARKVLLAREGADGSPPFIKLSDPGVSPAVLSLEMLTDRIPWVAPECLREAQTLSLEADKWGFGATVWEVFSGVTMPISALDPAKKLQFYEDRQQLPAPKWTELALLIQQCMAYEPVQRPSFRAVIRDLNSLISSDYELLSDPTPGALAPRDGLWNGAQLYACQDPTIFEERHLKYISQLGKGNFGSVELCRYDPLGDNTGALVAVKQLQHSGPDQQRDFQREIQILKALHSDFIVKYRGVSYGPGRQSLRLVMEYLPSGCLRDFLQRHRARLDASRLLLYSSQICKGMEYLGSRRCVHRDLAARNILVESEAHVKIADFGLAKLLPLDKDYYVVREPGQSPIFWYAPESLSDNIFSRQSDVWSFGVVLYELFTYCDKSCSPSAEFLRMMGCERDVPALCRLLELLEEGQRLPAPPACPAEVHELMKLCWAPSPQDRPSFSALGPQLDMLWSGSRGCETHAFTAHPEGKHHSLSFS
Experimental: (§1) FLT3 (#PV3182), JAK2 (#FV4210) and JAK3 (#PV3855) recombinant enzymes were purchased from Life Technologies, FLT3-ITD (#0778-0000-1) and FLT3^D835Y (#14-610) proteins were purchased from ProQinase and Merck Millipore, respectively. All the tests were carried out in 384-well plates. The principle of these binding tests is based on the LanthaScreen® TR-FRET methodology from Life Technologies.
(§2) JAK tests. The reaction mixture (15 μL total volume) contains the following compounds: 15 nM JAK2 or JAK3, 150 nM kinase tracer 236 (Life Technologies, #PV5592) for JAK2 or 3 nM for JAK3 and 6 nM LanthaScreen® anti-GST antibody coupled to a europium chelate (Life Technologies, #PV5594) for both enzymes.
(§3) The compounds are evaluated at 8 different concentrations prepared by making dilutions from a starting 10 mM stock solution in dimethylsulfoxide (DMSO) (Sigma, #D8418). The final DMSO concentration in the test is 1%. The reaction is carried out at 25° C. for 1 hour and detected on the EnVision® reader (Perkin Elmer) according to the recommendations of the supplier, Life Technologies.
(§4) The results are presented (Table 1) as the concentration values of the compound at which 50% of the kinase activity is inhibited, IC50 (μM), generated using the PRISM software (GraphPad).

[2] = tested on: MV4-11; experiment: Antiproliferative activity, MV4-11 cells (ATPLite); format: cell-based; conditions: Homo sapiens; MV4-11 cell line (acute myeloid leukemia, FLT3-ITD), 72 h, cell viability by ATPLite; read-out: EC50 MV411
Experimental: (§5) The characteristics of the cell lines used are as follows (Table 2).
(§6) MV4-11 and MOLM-13 cell lines are cultured in the culture medium specified in Table 2 above and according to the supplier's recommendations. The tests are carried out in 96-well plates. The cells are divided in two at D0. At D1, they are seeded and treated with the compounds at various concentrations and incubated for 72 h at 37° C. and 5% CO2. The dilution of the compounds from stock solutions in DMSO (Sigma, #D8418) was made semi-logarithmically for a final concentration in the culture medium of 0.1%. At day 4, cell viability is evaluated by assaying the ATP released by the living cells using the ATPLite® kit (Perkin Elmer, #6016947). The EC50 values (concentration of the compound necessary to obtain 50% of the maximum effect) are calculated using curve-fitting software.

[3] = molecular target: T2, FLT3 (Homo sapiens, UniProt P36888); experiment: LanthaScreen TR-FRET binding test, FLT3; conditions: recombinant enzyme 15 nM, kinase tracer 236 3 nM, 25° C., 1 hour
T2 construct: purchased Life Technologies PV3182
T2 sequence (P36888 27-993): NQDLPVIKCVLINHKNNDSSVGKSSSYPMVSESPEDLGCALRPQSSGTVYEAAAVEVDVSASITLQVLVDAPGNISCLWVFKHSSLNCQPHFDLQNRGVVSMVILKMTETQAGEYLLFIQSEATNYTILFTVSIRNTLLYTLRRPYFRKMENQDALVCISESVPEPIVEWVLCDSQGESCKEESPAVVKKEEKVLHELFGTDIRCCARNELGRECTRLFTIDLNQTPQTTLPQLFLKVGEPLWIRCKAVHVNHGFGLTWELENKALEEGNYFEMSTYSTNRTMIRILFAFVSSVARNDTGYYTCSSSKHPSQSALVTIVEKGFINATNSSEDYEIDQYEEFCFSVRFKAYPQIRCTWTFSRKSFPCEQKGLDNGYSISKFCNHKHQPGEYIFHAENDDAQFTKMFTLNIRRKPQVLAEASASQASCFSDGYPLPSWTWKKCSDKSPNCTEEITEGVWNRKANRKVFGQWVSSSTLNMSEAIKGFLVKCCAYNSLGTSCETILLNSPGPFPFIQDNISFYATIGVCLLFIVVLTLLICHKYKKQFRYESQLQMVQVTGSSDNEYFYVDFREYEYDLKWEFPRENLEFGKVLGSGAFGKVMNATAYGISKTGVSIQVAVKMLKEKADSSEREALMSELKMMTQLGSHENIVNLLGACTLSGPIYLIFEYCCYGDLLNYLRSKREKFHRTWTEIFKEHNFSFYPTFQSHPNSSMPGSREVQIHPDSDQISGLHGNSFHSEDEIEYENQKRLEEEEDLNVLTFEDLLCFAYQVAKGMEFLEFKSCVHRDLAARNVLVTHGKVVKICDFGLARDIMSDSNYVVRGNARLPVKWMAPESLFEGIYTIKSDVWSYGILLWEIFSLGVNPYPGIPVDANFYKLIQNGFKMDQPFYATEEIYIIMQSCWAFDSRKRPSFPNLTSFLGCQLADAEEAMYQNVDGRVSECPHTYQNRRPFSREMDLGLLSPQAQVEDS
Experimental: as §1
(§7) FLT3 tests. The reaction mixture (15 μL total volume) contains the following compounds: 15 nM FLT3, FLT3-ITD or FLT3^D835Y, 3 nM kinase tracer 236 (Life Technologies, #PV5592) and 6 nM LanthaScreen® anti-GST antibody coupled to a europium chelate (Life Technologies, #PV5594) for FLT3-ITD and FLT3^D835Y or 6 nM LanthaScreen® anti-His antibody coupled to a europium chelate (Life Technologies, #PV5596) for FLT3.
as §3, §4

[4] = molecular target: T3, FLT3-ITD (Homo sapiens, UniProt P36888); experiment: LanthaScreen TR-FRET binding test, FLT3-ITD; conditions: 15 nM protein, kinase tracer 236 3 nM, 25° C., 1 hour
T3 construct: fused on or other part: GST tag, inferred from detection with the anti-GST europium antibody
T3 sequence (P36888 1-993): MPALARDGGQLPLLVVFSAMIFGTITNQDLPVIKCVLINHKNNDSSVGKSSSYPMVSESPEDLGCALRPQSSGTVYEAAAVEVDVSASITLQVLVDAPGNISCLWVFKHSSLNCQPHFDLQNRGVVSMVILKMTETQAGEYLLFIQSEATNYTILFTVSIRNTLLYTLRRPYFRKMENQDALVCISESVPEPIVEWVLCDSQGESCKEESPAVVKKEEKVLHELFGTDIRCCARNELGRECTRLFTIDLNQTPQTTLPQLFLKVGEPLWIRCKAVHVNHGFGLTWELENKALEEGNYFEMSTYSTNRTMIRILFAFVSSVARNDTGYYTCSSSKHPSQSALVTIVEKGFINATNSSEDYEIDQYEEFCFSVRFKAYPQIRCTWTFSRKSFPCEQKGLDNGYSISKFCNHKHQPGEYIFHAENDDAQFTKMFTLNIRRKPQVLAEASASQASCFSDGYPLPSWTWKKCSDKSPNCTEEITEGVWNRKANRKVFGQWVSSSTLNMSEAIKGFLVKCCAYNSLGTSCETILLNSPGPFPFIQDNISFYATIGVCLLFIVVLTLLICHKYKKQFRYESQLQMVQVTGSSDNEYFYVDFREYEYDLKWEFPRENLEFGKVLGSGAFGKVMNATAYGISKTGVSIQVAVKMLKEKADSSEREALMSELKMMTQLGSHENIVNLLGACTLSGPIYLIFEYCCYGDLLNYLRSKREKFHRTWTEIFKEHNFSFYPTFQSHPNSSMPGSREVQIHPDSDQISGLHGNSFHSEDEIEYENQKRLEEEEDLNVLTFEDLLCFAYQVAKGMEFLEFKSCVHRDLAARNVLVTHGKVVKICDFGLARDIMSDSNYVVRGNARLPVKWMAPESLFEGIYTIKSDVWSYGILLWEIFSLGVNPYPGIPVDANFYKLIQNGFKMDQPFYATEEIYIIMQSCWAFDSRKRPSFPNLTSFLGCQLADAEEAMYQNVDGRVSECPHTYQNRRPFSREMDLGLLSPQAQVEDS
Experimental: as §1, §7, §3, §4

[5] = tested on: MOLM-13; experiment: Antiproliferative activity, MOLM-13 cells (ATPLite); format: cell-based; conditions: Homo sapiens; MOLM-13 cell line (acute myeloid leukemia, FLT3-ITD), 72 h, cell viability by ATPLite; read-out: EC50 MOLM13
Experimental: as §5, §6

[6] = molecular target: T4, FLT3^D835Y (Homo sapiens, UniProt P36888, D835Y); experiment: LanthaScreen TR-FRET binding test, FLT3 D835Y; conditions: 15 nM protein, kinase tracer 236 3 nM, 25° C., 1 hour
T4 construct: purchased Merck Millipore 14-610
T4 sequence (P36888 27-993 D835Y): T2 sequence (P36888 27-993) with D809Y
Experimental: as §1, §7, §3, §4

[7] = molecular target: T5, JAK2 (Homo sapiens, UniProt O60674); experiment: LanthaScreen TR-FRET binding test, JAK2; conditions: recombinant enzyme 15 nM, kinase tracer 236 150 nM, 25° C., 1 hour
T5 construct: purchased Life Technologies FV4210
T5 sequence (O60674 whole entry): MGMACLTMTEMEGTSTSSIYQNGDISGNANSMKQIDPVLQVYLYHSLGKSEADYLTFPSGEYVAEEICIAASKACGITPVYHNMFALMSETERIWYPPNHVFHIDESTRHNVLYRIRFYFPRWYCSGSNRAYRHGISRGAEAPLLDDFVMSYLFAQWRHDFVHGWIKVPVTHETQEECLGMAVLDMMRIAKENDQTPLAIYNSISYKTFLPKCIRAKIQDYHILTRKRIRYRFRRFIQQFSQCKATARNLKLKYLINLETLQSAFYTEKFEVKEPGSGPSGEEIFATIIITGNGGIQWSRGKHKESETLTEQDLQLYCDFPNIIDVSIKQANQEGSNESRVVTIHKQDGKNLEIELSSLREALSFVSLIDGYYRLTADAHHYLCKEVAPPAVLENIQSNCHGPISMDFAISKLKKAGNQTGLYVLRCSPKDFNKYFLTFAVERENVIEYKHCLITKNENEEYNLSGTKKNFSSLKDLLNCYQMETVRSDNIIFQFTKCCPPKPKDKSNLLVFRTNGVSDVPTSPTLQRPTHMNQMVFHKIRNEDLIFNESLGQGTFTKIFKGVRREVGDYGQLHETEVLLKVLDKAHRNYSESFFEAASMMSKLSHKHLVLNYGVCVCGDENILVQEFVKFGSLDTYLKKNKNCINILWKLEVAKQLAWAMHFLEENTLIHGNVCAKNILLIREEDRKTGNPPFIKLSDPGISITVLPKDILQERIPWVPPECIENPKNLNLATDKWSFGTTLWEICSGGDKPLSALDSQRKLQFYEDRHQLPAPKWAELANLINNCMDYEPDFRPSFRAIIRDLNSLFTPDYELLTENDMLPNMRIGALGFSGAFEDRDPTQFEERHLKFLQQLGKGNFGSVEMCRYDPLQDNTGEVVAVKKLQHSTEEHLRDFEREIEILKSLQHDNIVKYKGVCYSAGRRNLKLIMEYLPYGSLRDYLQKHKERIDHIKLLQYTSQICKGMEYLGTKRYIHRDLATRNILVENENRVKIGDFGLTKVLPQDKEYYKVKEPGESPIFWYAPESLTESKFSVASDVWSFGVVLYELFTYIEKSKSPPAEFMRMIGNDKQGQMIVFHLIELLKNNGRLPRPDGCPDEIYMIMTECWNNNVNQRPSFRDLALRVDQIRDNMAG
Experimental: as §1, §2, §3, §4

IC50 [1] [nM]	EC50 [2] [nM]	IC50 [3] [nM]	IC50 [4] [nM]	EC50 [5] [nM]	IC50 [6] [nM]	IC50 [7] [nM]	SMILES
50	57.3	25.5	14.5	18.9	35	7.7	CN1CCN(c2ccc3cc2OCCOCCOc2cccc(c2)-c2ccnc(n2)N3)CC1 [Compound 4]
100	1.8	4.7	1.6	3.9	6.2	60	CN1CCN(c2cc3cc(c2)OCCOCCOc2cccc(c2)-c2ccnc(n2)N3)CC1 [Compound 46]
50	246	110	120	145	41.2	5.2	CN1CCC(N2CCN(c3ccc4cc3OCCOCCOc3cccc(c3)-c3ccnc(n3)N4)CC2)CC1 [Compound 6]
